Tests used:
[1] = tested on: C57Bl6 mice; experiment: Dose response on bile physiology after single oral gavage in mice; format: in vivo
Method: FIG. 16A-J: Increase of bile secretion following activation of P2Y13r pathway in mice. C57Bl/6J mice (n=10) were fasted for 2 h and then intravenously injected with Cangrelor® or Compound IIa (10 nmoles/kg). Four hours later the gallbladders were removed and analyzed for: Bile acids content (FIG. 16A); Bile cholesterol content (FIG. 16B). C57Bl/6J mice (n=10) were fasted for 2 h followed by single oral dose of P2Y13r agonist Compound IIa at 3, 30 or 300 μg/kg. Six hours later bile acids contents (FIG. 16C); bile cholesterol content (FIG. 16D), and bile acid content of liver (FIG. 16E) were evaluated using HPLC and enzymatic kits for gallbladers. Plasma samples were collected at time 0 and after 6 h of treatment, then analyzed for: total cholesterol (▴), unesterified cholesterol (●), esterified cholesterol (▪) and HDL cholesterol (▾) determined using either enzymatic kits or Lipoprint® for HDL cholesterol (FIG. 16F). C57Bl/6J mice (n=5) were intravenously injected with [^3H]-cholesterol-labelled mouse HDL (FIG. 16G), [^3H]-cholesteryl oleate-labelled mouse HDL (FIG. 16H) or [^3H]-cholesterol-labelled mouse LDL (FIG. 16I), and with Cangrelor® or Compound IIa (10 nmoles/kg). Radioactivity present in the liver was determined 2 hours later for the HDL or 5 hours later for the LDL. Cholesterol content of feces from treated animals (100 μg/kg) was determined by Charge aerosol detection (FIG. 16J). *p<0.05, **p<0.01.
The dose response after oral gavage was determined for illustrative compounds of the invention. The chosen doses were 0.003, 0.03 and 0.3 mg/kg. The selected compounds of the invention were administrated by oral gavage and 6 hours later the mice are sacrificed and the bile content was analyzed (FIGS. 6-11).
Bile acids were diluted in PBS (1:5000) and the concentration was measured according to the manufacturer protocol with slight modifications. Concentrations of bile acids in the standard curve were varied from […] and the enzymatic reaction was performed for 20 minutes. 4 μl of 1:5000 bile dilution was used for concentration determination.
Bile phospholipids were measured according to the manufacturer protocol. Briefly, the standards were varied from 0 to 20 μg/ml and 4 μl of bile was measured in the assay. The reaction was performed for 5 minutes at 37° C.
Bile phospholipids were measured according to the manufacturer protocol. Briefly, the standards were varied from 0 to 60 μg/ml and 10 μl of bile (dilution 1:10) was measured in the assay. The reaction was performed for 5 minutes at 37° C.

[2] = tested on: apoE−/− mice; experiment: ApoE−/− high-cholesterol diet model (aorta plaque progression); format: in vivo; conditions: 8 weeks diet then 4 weeks 100 μg/kg/day
Method: FIG. 19A-L: Effect of P2Y13 agonist on atherosclerotic plaque progression in aortas of apoE^−/− mice. ApoE^−/− mice (n=20) were placed on a Western diet for 8 weeks followed by a 4 weeks oral gavage of vehicle or 100 μg/kg of Compound IIa. Aortas (n=10) were lipid extracted in 2:1 chloroform/methanol. FIG. 19A: the concentrations in total cholesterol were measured by HPLC and GC/MS and compared to parallel apoE−/− mice (n=10) on normal Chow diet as a baseline. FIG. 19B: quantification of the intima/media ratio (n=10). FIG. 19C: F4/80 antibody staining quantification (n=10). FIG. 19D: Oil Red O positive staining quantification (n=10). FIG. 19E: quantification of Sirius Red staining (n=10). FIG. 19F: anti-VCAM1 antibody staining quantification (n=10). The quantifications were expressed as the percentage of staining as compared to the sum of the intima and media area. *p<0.05. FIG. 19G to FIG. 19L: typical example of staining of aorta slides used for the quantifications. FIG. 19G and FIG. 19J: hematoxylin eosin staining of transversal sections of apoE^−/− mice aortas. FIG. 19H and FIG. 19K: Oil Red O staining of transversal sections of apoE^−/− mice aortas. FIG. 19I and FIG. 19L: VCAM1 antibody staining of transversal sections of apoE^−/− mice aortas.
Mice were placed for two month on Western diet (0.2% cholesterol, 21% butter milk) then dosed with Compound IIa once a day at 100 μg/kg (0.5% CMC, 0.2% Tween80) for 4 more weeks. The mice were sacrificed and the aortas were collected for biochemical and immunohistological characterizations. One set of aorta (n=10) was detached at the base of the heart and placed in a glass tube with 3 ml of chloroform-methanol 2:1 (v/v), and stigmasterol as the internal standard. Then analyzed as described above. Another set of aortas (n=10) were first extensively washed with PBS, then with 4% paraformaldehyde (500 μl) and finally with tissue tek OCT (500 μl). Next the aorta was embedded in OCT and frozen at −20° C. Three step frozen sections of 10 μm separated one from the other were processed and stained with Oil red O (ORO), Sirius red and hematoxylin/eosin. Macrophages were detected using F4/80 primary rat monoclonal antibody (Abcam) and VCAM was detected using rat anti mouse CD106 (AbDSerotec).
The prevention of progression of the plaque in aorta was further evaluated in the cholesterol diet-fed apoE−/− mice (FIG. 19). […] The collagen content of the wall was improved (FIG. 19E).

## CN(C)c1ncc(CN2CCC(c3cc(O)nc(N4CCOCC4)n3)CC2)cn1 [Compound IIa, 6-[1-(2-Dimethylaminopyrimidin-5-ylmethyl)-piperidin-4-yl]-2-morpholin-4-yl-pyrimidin-4-ol]
[1]; after 4 h of treatment, exception: unesterified cholesterol
  plasma cholesterol and HDL: not significantly affected
[1]; oral gavage 0.003, 0.03 and 0.3 mg/kg, bile analyzed 6 hours later
  dose at which an effect on bile acids, bile cholesterol and bile phospholipids was shown: 3 µg/kg
[1]; oral gavage, doses as low as 30 μg/kg
  bile acid and cholesterol secretion in the bile: stimulation
[1]; oral, 30 μg/kg
  liver bile acid content: increase
[2]
  VCAM1 expression (antibody CD106): significant decreases
  cholesterol content of aorta: significant decreases
  collagen content of the wall: improved
  lipid staining of aorta: decrease
  macrophage content (F4/80 antibody) of the aortic wall and the plaque: decreased
  plaque area in aorta: significant decreases
